Laboratory results reported in PubChem BioAssay AID248 (DTP/NCI, 2004).
Several values for one entry are separate records, joined by “and”; a condition that tells them apart may be missing. Identical values can stand only once. Inconclusive results and toxic doses are left out. Rule as the data show it: active = T/C of 150% or more; inactive = T/C below 125%.

Tested on: L1210 leukemia ip in BDF1 mice, survival T/C
Assay: NCI In Vivo Anticancer Drug Screen. Data for tumor model L1210 Leukemia (intraperitoneal) in B6D2F1 (BDF1) mice
Conditions: endpoint: mean survival time, higher = longer survival
How it was run: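 Transplanted-tumor mice were given test agent; controls received vehicle only. Survival readings from the two groups were divided (treated over control).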

[1] = dose: 50.0 mg/kg/injection, schedule: Q01DX009 (ip), vehicle: saline
[2] = dose: 100.0 mg/kg/injection, schedule: Q01DX009 (ip), vehicle: saline
[3] = dose: 100.0 mg/kg/injection, schedule: Q01DX009 (ip), vehicle: saline with Tween-80
[4] = dose: 200.0 mg/kg/injection, schedule: Q01DX009 (ip), vehicle: saline with Tween-80
[5] = dose: 100.0 mg/kg/injection, schedule: Q01DX009 (ip), vehicle: Klucel (hydroxypropylcellulose) (HPC)
[6] = dose: 100.0 mg/kg/injection, schedule: Q04DX003 (ip), vehicle: Klucel (hydroxypropylcellulose) (HPC)
[7] = dose: 200.0 mg/kg/injection, schedule: Q01DX009 (ip), vehicle: Klucel (hydroxypropylcellulose) (HPC)
[8] = dose: 200.0 mg/kg/injection, schedule: Q04DX003 (ip), vehicle: Klucel (hydroxypropylcellulose) (HPC)
[9] = dose: 400.0 mg/kg/injection, schedule: Q01DX009 (ip), vehicle: Klucel (hydroxypropylcellulose) (HPC)
[10] = dose: 400.0 mg/kg/injection, schedule: Q04DX003 (ip), vehicle: Klucel (hydroxypropylcellulose) (HPC)
[11] = dose: 100.0 mg/kg/injection, schedule: Q04DX003 (ip), vehicle: saline
[12] = dose: 200.0 mg/kg/injection, schedule: Q04DX003 (ip), vehicle: saline
[13] = dose: 50.0 mg/kg/injection, schedule: Q01DX009 (ip), vehicle: saline with Tween-80
[14] = dose: 100.0 mg/kg/injection, schedule: Q04DX003 (ip), vehicle: saline with Tween-80

Measured: T/C

CN(c1ccccc1)c1cc(=O)[nH]c(=O)[nH]1
inactive: dose: 100.0 mg/kg/injection, schedule: Q01DX001 (ip), vehicle: Klucel (hydroxypropylcellulose) (HPC) 95 % of control | dose: 200.0 mg/kg/injection, schedule: Q01DX001 (ip), vehicle: Klucel (hydroxypropylcellulose) (HPC) 104 % of control | dose: 400.0 mg/kg/injection, schedule: Q01DX001 (ip), vehicle: Klucel (hydroxypropylcellulose) (HPC) 99 % of control

CC1=CC(=O)C(CO)=CC1=O
inactive: dose: 0.09 mg/kg/injection, schedule: Q01DX009 (ip), vehicle: saline with Tween-80 93 % of control | dose: 0.18 mg/kg/injection, schedule: Q01DX009 (ip), vehicle: saline with Tween-80 97 % of control | dose: 0.37 mg/kg/injection, schedule: Q01DX009 (ip), vehicle: saline with Tween-80 104 % of control | dose: 3.0 mg/kg/injection, schedule: Q01DX009 (ip), vehicle: other 105 % of control | dose: 3.0 mg/kg/injection, schedule: Q04DX002 (ip), vehicle: other 107 % of control | dose: 6.0 mg/kg/injection, schedule: Q01DX009 (ip), vehicle: other 91 % of control | dose: 6.0 mg/kg/injection, schedule: Q04DX002 (ip), vehicle: other 96 % of control | dose: 12.5 mg/kg/injection, schedule: Q04DX002 (ip), vehicle: other 86 % of control

C/C=C1/C(=O)Oc2ccccc21
inactive: [1] 97 % of control | [2] 102 % of control | dose: 200.0 mg/kg/injection, schedule: Q01DX009 (ip), vehicle: saline 94 % of control

O=C1c2cc(Br)ccc2-c2c(N=Cc3ccc4c(c3)OCO4)cc(Br)cc21
inactive: dose: 100.0 mg/kg/injection, schedule: Q01DX001 (ip), vehicle: other 95 % of control | dose: 200.0 mg/kg/injection, schedule: Q01DX001 (ip), vehicle: other 103 % of control | dose: 400.0 mg/kg/injection, schedule: Q01DX001 (ip), vehicle: other 106 % of control

O=C(O)COC1CCC(Cl)CC1 (stereo not drawn)
inactive: [3] 106 % of control | dose: 100.0 mg/kg/injection, schedule: Q04DX003 (ip), vehicle: acetone 101 % of control | [4] 94 % of control | dose: 200.0 mg/kg/injection, schedule: Q04DX003 (ip), vehicle: acetone 95 % of control | dose: 400.0 mg/kg/injection, schedule: Q01DX009 (ip), vehicle: saline with Tween-80 96 % of control | dose: 400.0 mg/kg/injection, schedule: Q04DX003 (ip), vehicle: acetone 91 % of control

CCCCCOc1ccc(C(=O)CC(=O)OCC)cc1
inactive: [5] 98 % of control | [6] 93 % of control | [7] 104 % of control | [8] 95 % of control | [9] 93 % of control | [10] 93 % of control

CC1(C)C/C(=C\c2ccc(Br)cc2)C(=O)c2ccccc21
inactive: [5] 98 % of control | [6] 106 % of control | [7] 95 % of control | [8] 106 % of control | [9] 101 % of control | [10] 104 % of control

Cc1ccc(C2(CO)OCC(O)C(O)C2O)cc1 (stereo not drawn)
inactive: dose: 100.0 mg/kg/injection, schedule: Q01DX001 (ip), vehicle: saline 100 % of control | dose: 200.0 mg/kg/injection, schedule: Q01DX001 (ip), vehicle: saline 96 % of control | dose: 400.0 mg/kg/injection, schedule: Q01DX001 (ip), vehicle: saline 98 % of control

COc1cccc2c1CCc1cc3c(nc1-2)-c1cccc(OC)c1CC3
inactive: [6] 103 % of control | [8] 100 % of control | [10] 101 % of control

CC(=O)N(C)N
inactive: dose: 12.5 mg/kg/injection, schedule: Q01DX009 (ip), vehicle: saline 98 % of control | dose: 12.5 mg/kg/injection, schedule: Q04DX003 (ip), vehicle: saline 112 % of control | dose: 25.0 mg/kg/injection, schedule: Q01DX009 (ip), vehicle: saline 103 % of control | dose: 25.0 mg/kg/injection, schedule: Q04DX003 (ip), vehicle: saline 106 % of control | [1] 104 % of control | dose: 50.0 mg/kg/injection, schedule: Q04DX003 (ip), vehicle: saline 106 % of control | [2] 117 % of control | [11] 108 % of control | [12] 105 % of control

Nc1nc(N)nc(-c2ccccc2)n1
inactive: [13] 94 % of control | [5] 111 % of control | [3] 94 % of control | dose: 100.0 mg/kg/injection, schedule: Q04DX002 (ip), vehicle: Klucel (hydroxypropylcellulose) (HPC) 114 % of control | [7] 111 % of control | [4] 97 % of control | dose: 200.0 mg/kg/injection, schedule: Q04DX002 (ip), vehicle: Klucel (hydroxypropylcellulose) (HPC) 107 % of control | [9] 93 % of control | dose: 400.0 mg/kg/injection, schedule: Q04DX002 (ip), vehicle: Klucel (hydroxypropylcellulose) (HPC) 88 % of control

NC(N)=NCCCC(N)C(=O)NCCCCCCNC(=O)CCC(=O)NCCCCCCNC(=O)C(N)CCCN=C(N)N (stereo not drawn)
inactive: dose: 62.5 mg/kg/injection, schedule: Q01DX010 (ip), vehicle: saline 94 % of control | dose: 125.0 mg/kg/injection, schedule: Q01DX010 (ip), vehicle: saline 98 % of control | dose: 250.0 mg/kg/injection, schedule: Q01DX010 (ip), vehicle: saline 100 % of control | dose: 500.0 mg/kg/injection, schedule: Q01DX010 (ip), vehicle: saline 113 % of control

CCC(/C=C/C(C)C1CCC2C3CC=C4CC(O)CCC4(C)C3CCC12C)C(C)C (stereo not drawn) (tested in a mixture with another compound)
inactive: dose: 100.0 mg/kg/injection, schedule: Q01DX001 (ip), vehicle: water 98 % of control | [14] 89 % of control | [11] 103 % of control | dose: 200.0 mg/kg/injection, schedule: Q01DX001 (ip), vehicle: water 105 % of control and 94 % of control | [12] 91 % of control | dose: 400.0 mg/kg/injection, schedule: Q04DX003 (ip), vehicle: saline 91 % of control

C/C(=N\N=C(N)N)c1ccccc1
inactive: dose: 15.0 mg/kg/injection, schedule: Q01DX Z (oral), vehicle: carboxymethylcellulose (CMC) 102 % of control | dose: 30.0 mg/kg/injection, schedule: Q01DX Z (oral), vehicle: carboxymethylcellulose (CMC) 97 % of control

NC(N)=Nc1cccc(OCCCOc2ccccc2)c1
inactive: dose: 150.0 mg/kg/injection, schedule: Q01DX001 (ip), vehicle: saline with Tween-80 88 % of control | dose: 300.0 mg/kg/injection, schedule: Q01DX001 (ip), vehicle: saline with Tween-80 94 % of control

O=C(COc1ccc([N+](=O)[O-])cc1Cl)Nc1cccc(S(=O)(=O)F)c1
inactive: [6] 98 % of control | [8] 106 % of control | [10] 91 % of control

CC1(C)CCC(C#N)=C1N
inactive: dose: 12.5 mg/kg/injection, schedule: Q01DX009 (ip), vehicle: saline with Tween-80 93 % of control | dose: 25.0 mg/kg/injection, schedule: Q01DX009 (ip), vehicle: saline with Tween-80 105 % of control | [13] 88 % of control

Cc1ccc(S(=O)(=O)Nc2c(N)nc(N)nc2-c2ccccc2)cc1
inactive: dose: 80.0 mg/kg/injection, schedule: Q01DX001 (ip), vehicle: Klucel (hydroxypropylcellulose) (HPC) 96 % of control | dose: 160.0 mg/kg/injection, schedule: Q01DX001 (ip), vehicle: Klucel (hydroxypropylcellulose) (HPC) 94 % of control | dose: 320.0 mg/kg/injection, schedule: Q01DX001 (ip), vehicle: Klucel (hydroxypropylcellulose) (HPC) 103 % of control

CN(C)N=Nc1ccc([N+](=O)[O-])cc1C(=O)O
inactive: dose: 25.0 mg/kg/injection, schedule: Q04DX003 (ip), vehicle: other 93 % of control | dose: 50.0 mg/kg/injection, schedule: Q04DX003 (ip), vehicle: other 98 % of control | [5] 100 % of control | dose: 100.0 mg/kg/injection, schedule: Q04DX003 (ip), vehicle: other 98 % of control | [7] 103 % of control | dose: 200.0 mg/kg/injection, schedule: Q04DX003 (ip), vehicle: other 101 % of control | [9] 110 % of control | dose: 400.0 mg/kg/injection, schedule: Q04DX003 (ip), vehicle: other 98 % of control

C=C1C(=O)OC2C1CCC(C)C1(CCC(=O)O1)C2(C)O (stereo not drawn)
inactive: [14] 96 % of control | dose: 200.0 mg/kg/injection, schedule: Q04DX003 (ip), vehicle: saline with Tween-80 96 % of control | dose: 400.0 mg/kg/injection, schedule: Q04DX003 (ip), vehicle: saline with Tween-80 96 % of control
